Measurements published in patent US6319501A, “Method of immunizing against hepatitis B virus” (Health Research, Inc., priority 1993, dated 2001).
Like-named read-outs stand apart in the source and are kept apart here. Ends that are not written are not given here.

Tests used:
[1] = tested on: Murine T cells primed with HBsAg, subtype ayr; experiment: In vitro proliferation (3H-TdR incorporation) of T cells from Balb/c mice primed with HBsAg subtype ayr (FIG. 3); assay type: cell-based, mouse (Balb/c)
Source text: FIG. 3. depicts relative T cell-stimulatory activity of replacement set peptides expressed as a percentage of stimulation elicited by the parent peptide. Murine T cells were obtained by nylon wool column purification of Balb/c lymph node cells primed with HBsAg, subtype ayr (Scripps Laboratories, San Diego, Calif.). For comparison, the T cell-stimulatory response to rHBsAg, subtype ad(32,657), HBsAg subtype ayr (54,640), parent peptide (16,073=100%) and media control (330) were examined at optimal concentrations for each antigen. Values shown in parentheses are mean cpms corresponding to ^3 H-TdR incorporation measured in triplicate. Amino acid residues replacing amino acids in the parent sequence are shown at the bottom of the bars.
(§1) Balb/c mice were immunized in the hind foot pads, either with 0.5 μg of RecombiVax HB or with HBsAg subtype ayw (Scripps Laboratories), on day 0, 14 and 21. One week after the last injection, the animals were sacrificed and the popliteal lymph nodes were collected. The nodes were teased apart and the dispersed cells were then washed twice in RPMI-1640 medium without any serum supplement and once in RPMI medium containing 10% bovine calf serum. A cell count was made and the cell concentration was adjusted so that T cell enrichment was then done at 1×10^8 cells/0.6g of packed nylon wool column. […]

[2] = tested on: Murine T cells primed to rHBsAg, subtype ad; experiment: In vitro proliferation (3H-TdR incorporation) of T cells from Balb/c mice primed with rHBsAg subtype ad (FIG. 4); assay type: cell-based, mouse (Balb/c); conditions: mice primed with HBsAg ad
Source text: FIG. 4. depicts relative T cell-stimulatory activity of replacement set peptides expressed as a percentage of stimulation elicited by the parent peptide. Murine T cells were obtained by nylon wool column purification of Balb/c lymph node cells primed to rHBsAg, subtype ad (RecombiVax HB, Merck Sharp & Dohme). For comparison the T cells-stimulatory response to rHBsAg, subtype ad (97,024), rHBsAg subtype ayr (64,878), parent peptide (44,916=100%) and media control (1,873) was examined at optimal concentrations for each antigen. Values shown in parentheses are mean cpms corresponding to ^3 H-TdR incorporation measured in triplicate. Amino acid residues replacing amino acids in the parent sequence are shown at the bottom of the bars.
as §1

[3] = tested on: antibodies recognizing the (139-147) segment of the S-protein (reaction with HBsAg); experiment: Inhibition of attachment of antibodies recognizing S(139-147) to HBsAg-coated wells (comparative antigenicity of replacement set peptides); assay type: binding, rabbit
Experimental: FIG. 1. concerns the relative inhibitory activity of replacement set peptides on the reaction of antibodies recognizing the (139-147) segment of the S-protein with HBsAg. The concentration of each peptide at which the attachment of antibodies to solid phase HBsAg was reduced by 50% (C50) was determined. C50 of the parent peptide (sequence shown on top of the bars) was divided by C50 for each inhibitory peptide and the log10 of the ratio was plotted on the ordinate. Amino acid residues replacing amino acids in the parent sequence are shown on the top of each bar. The sequence numbers of residues being replaced in the parent sequence are shown on the bottom of the bar groups.
Wells of 96-well polystryene plates (Removawell, Immunolon II, Dynatech Laboratories, Chantilly, Va.) were coated with HBsAg subtype adw (200 μl; 100 μg/ml in 0.01 M Tris HCl pH 8.8) overnight at 20° C. The wells were then coated with a mixture of bovine serum albumin (BSA) and gelatin (10 and 2.5 mg/ml, respectively) in 0.14 M NaCl, 0.01 M Tris, 0.02% NaN3 (TS). […] The diluted antiserum, without added peptides, and normal rabbit serum served as positive and negative controls, respectively. Aliquots of the diluted rabbit sera with or without the peptides (200 μl) were added to the HBsAg-coated wells. After overnight incubation at 25° C., the plates were washed with 200 μl of TS and ^125 I-labeled anti-rabbit IgG (Kirkegaard & Perry Laboratories, Inc., Gaithersburg, Md.; 200,000 cpm diluted 1:1 with TSBG) were added to the wells. After incubation for 2 hours at 37° C., the wells were washed with TS and counted for radioactivity. Radioactivity, corrected for counts corresponding to diluted normal rabbit serum, was plotted against the log10 of the concentration of the respective peptides. […]

[4] = tested on: Human peripheral blood mononuclear cells (PBMC); experiment: In vitro proliferation (3H-TdR incorporation) of human PBMC / T cells from rHBsAg vaccinees (FIG. 5); assay type: cell-based; conditions: humans immunized with recombinant HBsAg vaccine
Source text: Human peripheral blood mononuclear cells (PBMC) were obtained from volunteers who had received the full course of the rHBsAg vaccine (Merck Sharp & Dohme). Donor 1 .box-solid. Donor 2 z1 Donor 3 .quadrature. Donor 4 z2 For comparison average T cell-stimulatory response to rHBsAg subtype ad (146,478), parent peptide (96,930=100%) and media control (1,147) was examined at optimal concentrations for each antigen. Values expressed in parentheses are mean cpms of ^3 H-TdR incorporation of triplicate wells. Amino acid residues replacing amino acids in the parent sequence are shown at the bottom of the bars.
Sixty ml of blood was collected (in heparin containing syringes) from the antecubital vein of individuals who were vaccinated with a recombinant hepatitis B vaccine (RecombiVax HB; Merck, Sharp and Dohme). […]
Peripheral blood mononuclear cells were cultured in 96 well flat bottom plates at a density of 2.5×10^5 cells/100 μl per well in RPMI-1640 medium supplemented with 2mM glutamine, 100 units/ml penicillin, 100 μg/ml streptomycin, 50 μg/ml gentamycin and 10% human AB-positive serum. […] Proliferation, as measured by thymidine incorporation, was determined by liquid scintillation spectroscopy. Results are expressed as mean counts per minute (cpm) for triplicate cultures.

native HBsAg = conditions: after polymerization with glutaraldehyde; cited from earlier work
anti-HBs = conditions: cited from earlier work
[5] = tested on: T-helper (Th) lymphocytes; conditions: humans immunized with HBsAg; linear and cyclic forms; cited from earlier work
[6] = tested on: T-helper (Th) lymphocytes; conditions: mice immunized with HBsAg; linear and cyclic forms; cited from earlier work

| Substance | T-cell proliferative response / tolerance of replacement (in words) [1] | T-cell proliferative response / tolerance of replacement (in words) [2] | inhibition of attachment of anti-HBs to HBsAg-coated wells, preliminary results (in words) [3] | also measured |
| --- | --- | --- | --- | --- |
| CTKPSDGNC | much more effective in eliciting proliferation of T-cells from mice immunized with HBsAg ayr in comparison with the ad-specific peptide | most tolerated | inhibited the attachment of anti-HBs to HBsAg-coated wells | IC50 ([3]; HBsAg-coated wells, rabbit antiserum to S(135-155) diluted 150-fold, read-out: concentration of peptide at which a 50% inhibition of anti-HBs attachment occurred (C50)): 56 nM; T-cell proliferative response / tolerance of replacement (in words) [4]: responded virtually equally |
| CTKPTDGNC [S(139-147) peptide with threonine at position 143, corresponding to S-protein subtype ad] | most favored replacement | much more effective in eliciting proliferation of T-cells from mice immunized with HBsAg ad in comparison with the ay specific peptide | inhibited the attachment of anti-HBs to HBsAg-coated wells |  |
| cyclic peptide corresponding to the sequence S(139-147): cyclic peptide S(139-147) from the S-protein subtype adw with a disulfide bond between residues (139-147) |  |  |  | antibodies elicited (in words) (native HBsAg): elicited antibodies reactive with native HBsAg; binding / affinity to anti-HBs (in words) (anti-HBs): affinity similar to that determined for the reaction between native HBsAg and anti-HBs |
| peptide S(139-147): peptide S(139-147) in both linear and cyclic forms (LYLPAGGSS; also: linear and cyclic forms; UniProt P03141 139-147, looked up, fragment) |  |  |  | proliferation of T-helper lymphocytes (in words) [5]: elicited the proliferation of T-helper (Th) lymphocytes; proliferation of T-helper lymphocytes (in words) [6]: elicited the proliferation of T-helper (Th) lymphocytes |
